# Source: patent US11464782B2, “Method of treating pain or interstitial cystitis using indole compound” (Japan Tobacco Inc., priority 2018, dated 2022)
# Like-named read-outs stand apart in the source and are kept apart here.
# What was measured:
# [1] = Trough plasma concentrations of Compound A in the human clinical study; assay type: in vivo; details: for concentration at 2 week / concentration at 4 week / concentration at 8 week / concentration at 12 week: human, plasma, oral, human plasma
# Description: Compound A was evaluated in a multicenter, randomized, double-blind, placebo-controlled, parallel-group study in subjects with active rheumatoid arthritis. Subjects were randomized to receive orally placebo or an amount of monohydrochloride Compound A sufficient to provide 50 mg, 100 mg, 150 mg, or 200 mg of free form, once daily for 12 weeks.
# In the human clinical study described in Example 3, blood samples were collected from subjects prior to dosing at weeks 2, 4, 8, and 12 for the quantification of plasma Compound A levels.
# [2] = tested on: NGF-induced thermal hyperalgesia; experiment: NGF-induced thermal hyperalgesia in rats (plantar test, paw withdrawal latency); assay type: in vivo, rat
# Description: In order to induce a pain-related behavior (withdrawal behavior), NGF was injected into the plantar area of the left hind paw of rats and the thermal latencies/mechanical thresholds were measured. The effects of Compound A on these withdrawal behaviors were investigated. At 2 days before the injection of NGF, the thermal latencies or mechanical thresholds were measured for acclimation to the experimental environment. On the day before injection of NGF, body weights and values of the thermal latencies or mechanical thresholds were obtained. 50 μL of NGF solution was injected intraplantar to left hind paw of rats. 0.5 μg/site of NGF was selected in the evaluation of thermal stimuli and 1 μg/site was selected in that of mechanical stimuli. A monohydrochloride of Compound A (1, 3, or 10 mg/kg) was administered orally at the same time as the NGF injection. The latencies to thermal stimuli were measured at 3 and 6 hours after injection of NGF solution, and the thresholds to mechanical stimuli were measured at 1, 3 and 6 hours after injection of NGF solution. The evaluation was performed as a blind test of each group. The thermal latency was measured using a plantar test apparatus. An infrared heat stimuli was delivered to the plantar area of the hind paw and the time to withdraw the paw from the heat source was recorded automatically as the thermal latency. The measurement was performed 5 times for both hind paws of each animal, the averages of the last 3 values in each hind paw were accounted as the thermal latencies of each animal. The measurement for acclimation was performed only 3 times.
# [3] = tested on: rats with CYP-induced cystitis; experiment: Rat CYP-induced cystitis model, frequent urination by cystometry; assay type: in vivo; details: 2 or 6 mg/mL solutions at 5 mL/kg oral twice a day Day 1-2, cystometry Day 3
# Description: The effect of Compound A on frequent urination, calculated by single voided volume and intermicturition interval, was evaluated using a rat CYP-induced cystitis model. The evaluation was performed according to G M. Herrera et al., PLoS ONE 5 (8): e12298. Female CD (SD) rats (Charles River Laboratories Japan, Inc.) were used as the experimental animals. A monohydrochloride of Compound A was dissolved in 0.5% MC to prepare 2 mg/mL and 6 mg/mL solutions of Compound A.
# 30 mg/mL of CYP (Sigma) dissolved in saline was intraperitoneally administered in the vehicle group and Compound A group and saline was intraperitoneally administered in the sham group at 5 mL/kg (Day 1).
# 0.5% (w/v) MC was orally administered once a day for 2 days (Day 1-2) in the sham group and vehicle group at 5 mL/kg, and 2 mg/mL or 6 mg/mL solutions of Compound A was orally administered twice a day (Day 1-2) in the Compound A administration group at 5 mL/kg.
# Intravesical pressure and voided volume were measured by cystometry on Day 3, and single voided volumes and intermicturition intervals were calculated. Mean values were calculated for each group from individual single voided volumes and intermicturition intervals, and the results are shown in FIG. 12A and FIG. 12B, respectively.
compound,measurement,setting,value
"C[C@@H](C(=O)N(C)c1ccc2cc(-c3n[nH]c4c3CCC(C)(C)C4)[nH]c2c1)N1CCOCC1 [Compound A, N-[2-(6,6-dimethyl-4,5,6,7-tetrahydro-1H-indazol-3-yl)-1H-indol-6-yl]-N-methyl-(2S)-2-(morpholin-4-yl)propanamide]","Trough concentration, mean ratio relative to Compound A 50 mg QD at the same visit","[1]; 50 mg QD, 2 week",1.00
same,"Trough concentration, mean ratio relative to Compound A 50 mg QD at the same visit","[1]; 50 mg QD, 4 week",1.00
same,"Trough concentration, mean ratio relative to Compound A 50 mg QD at the same visit","[1]; 50 mg QD, 8 week",1.00
same,"Trough concentration, mean ratio relative to Compound A 50 mg QD at the same visit","[1]; 50 mg QD, 12 week",1.00
same,dose dependence and maintenance of mean trough concentrations,"[1]; 50 mg to 200 mg once daily, weeks 2-12",Mean trough concentrations increased as dose increased from 50 mg to 200 mg and trough concentrations were maintained throughout the study
same,"Trough concentration, mean ratio relative to Compound A 50 mg QD at the same visit","[1]; 100 mg QD, 2 week",1.52
same,"Trough concentration, mean ratio relative to Compound A 50 mg QD at the same visit","[1]; 100 mg QD, 4 week",1.60
same,"Trough concentration, mean ratio relative to Compound A 50 mg QD at the same visit","[1]; 100 mg QD, 8 week",1.77
same,"Trough concentration, mean ratio relative to Compound A 50 mg QD at the same visit","[1]; 100 mg QD, 12 week",1.50
same,"Trough concentration, mean ratio relative to Compound A 50 mg QD at the same visit","[1]; 150 mg QD, 2 week",2.51
same,"Trough concentration, mean ratio relative to Compound A 50 mg QD at the same visit","[1]; 150 mg QD, 4 week",2.28
same,"Trough concentration, mean ratio relative to Compound A 50 mg QD at the same visit","[1]; 150 mg QD, 8 week",2.10
same,"Trough concentration, mean ratio relative to Compound A 50 mg QD at the same visit","[1]; 150 mg QD, 12 week",2.63
same,"Trough concentration, mean ratio relative to Compound A 50 mg QD at the same visit","[1]; 200 mg QD, 2 week",3.89
same,"Trough concentration, mean ratio relative to Compound A 50 mg QD at the same visit","[1]; 200 mg QD, 4 week",3.33
same,"Trough concentration, mean ratio relative to Compound A 50 mg QD at the same visit","[1]; 200 mg QD, 8 week",3.11
same,"Trough concentration, mean ratio relative to Compound A 50 mg QD at the same visit","[1]; 200 mg QD, 12 week",2.98
same,concentration at 2 week,"[1]; 50 mg, 50 mg QD, 2 week, BLQ (<2.00 ng/mL) set to 0, read-out: Trough Plasma Concentrations, Min-Max",0 to 387 ng/mL
same,concentration at 2 week,"[1]; 50 mg, 50 mg QD, 2 week, read-out: Trough Plasma Concentrations, Mean (SD)",134 ng/mL
same,concentration at 2 week,"[1]; 50 mg, 50 mg QD, 2 week, read-out: Trough Plasma Concentrations, Median",118 ng/mL
same,concentration at 4 week,"[1]; 50 mg, 50 mg QD, 4 week, BLQ (<2.00 ng/mL) set to 0, read-out: Trough Plasma Concentrations, Min-Max",0 to 356 ng/mL
same,concentration at 4 week,"[1]; 50 mg, 50 mg QD, 4 week, read-out: Trough Plasma Concentrations, Mean (SD)",135 ng/mL
same,concentration at 4 week,"[1]; 50 mg, 50 mg QD, 4 week, read-out: Trough Plasma Concentrations, Median",119 ng/mL
same,concentration at 8 week,"[1]; 50 mg, 50 mg QD, 8 week, BLQ (<2.00 ng/mL) set to 0, read-out: Trough Plasma Concentrations, Min-Max",0 to 436 ng/mL
same,concentration at 8 week,"[1]; 50 mg, 50 mg QD, 8 week, read-out: Trough Plasma Concentrations, Mean (SD)",129 ng/mL
same,concentration at 8 week,"[1]; 50 mg, 50 mg QD, 8 week, read-out: Trough Plasma Concentrations, Median",108 ng/mL
same,concentration at 12 week,"[1]; 50 mg, 50 mg QD, 12 week, BLQ (<2.00 ng/mL) set to 0, read-out: Trough Plasma Concentrations, Min-Max",0 to 531 ng/mL
same,concentration at 12 week,"[1]; 50 mg, 50 mg QD, 12 week, read-out: Trough Plasma Concentrations, Mean (SD)",119 ng/mL
same,concentration at 12 week,"[1]; 50 mg, 50 mg QD, 12 week, read-out: Trough Plasma Concentrations, Median",100 ng/mL
same,concentration at 2 week,"[1]; 100 mg, 100 mg QD, 2 week, BLQ (<2.00 ng/mL) set to 0, read-out: Trough Plasma Concentrations, Min-Max",0 to 825 ng/mL
same,concentration at 2 week,"[1]; 100 mg, 100 mg QD, 2 week, read-out: Trough Plasma Concentrations, Mean (SD)",204 ng/mL
same,concentration at 2 week,"[1]; 100 mg, 100 mg QD, 2 week, read-out: Trough Plasma Concentrations, Median",191 ng/mL
same,concentration at 4 week,"[1]; 100 mg, 100 mg QD, 4 week, BLQ (<2.00 ng/mL) set to 0, read-out: Trough Plasma Concentrations, Min-Max",0 to 650 ng/mL
same,concentration at 4 week,"[1]; 100 mg, 100 mg QD, 4 week, read-out: Trough Plasma Concentrations, Mean (SD)",216 ng/mL
same,concentration at 4 week,"[1]; 100 mg, 100 mg QD, 4 week, read-out: Trough Plasma Concentrations, Median",215 ng/mL
same,concentration at 8 week,"[1]; 100 mg, 100 mg QD, 8 week, BLQ (<2.00 ng/mL) set to 0, read-out: Trough Plasma Concentrations, Min-Max",0 to 785 ng/mL
same,concentration at 8 week,"[1]; 100 mg, 100 mg QD, 8 week, read-out: Trough Plasma Concentrations, Mean (SD)",228 ng/mL
same,concentration at 8 week,"[1]; 100 mg, 100 mg QD, 8 week, read-out: Trough Plasma Concentrations, Median",194 ng/mL
same,concentration at 12 week,"[1]; 100 mg, 100 mg QD, 12 week, BLQ (<2.00 ng/mL) set to 0, read-out: Trough Plasma Concentrations, Min-Max",0 to 728 ng/mL
same,concentration at 12 week,"[1]; 100 mg, 100 mg QD, 12 week, read-out: Trough Plasma Concentrations, Mean (SD)",178 ng/mL
same,concentration at 12 week,"[1]; 100 mg, 100 mg QD, 12 week, read-out: Trough Plasma Concentrations, Median",175 ng/mL
same,concentration at 2 week,"[1]; 150 mg, 150 mg QD, 2 week, BLQ (<2.00 ng/mL) set to 0, read-out: Trough Plasma Concentrations, Min-Max",1.47 to 1110 ng/mL
same,concentration at 2 week,"[1]; 150 mg, 150 mg QD, 2 week, read-out: Trough Plasma Concentrations, Mean (SD)",335 ng/mL
same,concentration at 2 week,"[1]; 150 mg, 150 mg QD, 2 week, read-out: Trough Plasma Concentrations, Median",300 ng/mL
same,concentration at 4 week,"[1]; 150 mg, 150 mg QD, 4 week, BLQ (<2.00 ng/mL) set to 0, read-out: Trough Plasma Concentrations, Min-Max",0 to 748 ng/mL
same,concentration at 4 week,"[1]; 150 mg, 150 mg QD, 4 week, read-out: Trough Plasma Concentrations, Mean (SD)",309 ng/mL
same,concentration at 4 week,"[1]; 150 mg, 150 mg QD, 4 week, read-out: Trough Plasma Concentrations, Median",277 ng/mL
same,concentration at 8 week,"[1]; 150 mg, 150 mg QD, 8 week, BLQ (<2.00 ng/mL) set to 0, read-out: Trough Plasma Concentrations, Min-Max",0 to 743 ng/mL
same,concentration at 8 week,"[1]; 150 mg, 150 mg QD, 8 week, read-out: Trough Plasma Concentrations, Mean (SD)",272 ng/mL
same,concentration at 8 week,"[1]; 150 mg, 150 mg QD, 8 week, read-out: Trough Plasma Concentrations, Median",277 ng/mL
same,concentration at 12 week,"[1]; 150 mg, 150 mg QD, 12 week, BLQ (<2.00 ng/mL) set to 0, read-out: Trough Plasma Concentrations, Min-Max",0 to 992 ng/mL
same,concentration at 12 week,"[1]; 150 mg, 150 mg QD, 12 week, read-out: Trough Plasma Concentrations, Mean (SD)",312 ng/mL
same,concentration at 12 week,"[1]; 150 mg, 150 mg QD, 12 week, read-out: Trough Plasma Concentrations, Median",246 ng/mL
same,concentration at 2 week,"[1]; 200 mg, 200 mg QD, 2 week, BLQ (<2.00 ng/mL) set to 0, read-out: Trough Plasma Concentrations, Min-Max",5.01 to 2210 ng/mL
same,concentration at 2 week,"[1]; 200 mg, 200 mg QD, 2 week, read-out: Trough Plasma Concentrations, Mean (SD)",521 ng/mL
same,concentration at 2 week,"[1]; 200 mg, 200 mg QD, 2 week, read-out: Trough Plasma Concentrations, Median",436 ng/mL
same,concentration at 4 week,"[1]; 200 mg, 200 mg QD, 4 week, BLQ (<2.00 ng/mL) set to 0, read-out: Trough Plasma Concentrations, Min-Max",0 to 1570 ng/mL
same,concentration at 4 week,"[1]; 200 mg, 200 mg QD, 4 week, read-out: Trough Plasma Concentrations, Mean (SD)",450 ng/mL
same,concentration at 4 week,"[1]; 200 mg, 200 mg QD, 4 week, read-out: Trough Plasma Concentrations, Median",402 ng/mL
same,concentration at 8 week,"[1]; 200 mg, 200 mg QD, 8 week, BLQ (<2.00 ng/mL) set to 0, read-out: Trough Plasma Concentrations, Min-Max",0 to 1660 ng/mL
same,concentration at 8 week,"[1]; 200 mg, 200 mg QD, 8 week, read-out: Trough Plasma Concentrations, Mean (SD)",402 ng/mL
same,concentration at 8 week,"[1]; 200 mg, 200 mg QD, 8 week, read-out: Trough Plasma Concentrations, Median",392 ng/mL
same,concentration at 12 week,"[1]; 200 mg, 200 mg QD, 12 week, BLQ (<2.00 ng/mL) set to 0, read-out: Trough Plasma Concentrations, Min-Max",0 to 1170 ng/mL
same,concentration at 12 week,"[1]; 200 mg, 200 mg QD, 12 week, read-out: Trough Plasma Concentrations, Mean (SD)",354 ng/mL
same,concentration at 12 week,"[1]; 200 mg, 200 mg QD, 12 week, read-out: Trough Plasma Concentrations, Median",323 ng/mL
same,dose from which significant effects were observed (thermal latency),"[2]; at 6 hours after NGF injection, oral",≥ 3 mg/kg
same,effect on the decrease in the thermal latencies induced by NGF,"[2]; compared with the vehicle, 1, 3, 10 mg/kg oral, dose related",prevented the decrease in the thermal latencies induced by NGF
same,"frequent urination (single voided volume, intermicturition interval)",[3],suppressed frequent urination
